The values below come from patent US20230107216A1, “PANTETHEINE DERIVATIVES AND USES THEREOF” (Comet Therapeutics, Inc., priority 2018, published 2023).

Like-named read-outs stand apart in the source and are kept apart here. Some results are limits rather than exact numbers.

The subject of assay [1] is Dermal fibroblasts (HDF3CGF system). Nature of the assay: BioMAP HDF3CGF system (IL-1β, TNFα, IFNγ, EGF, bFGF, PDGF-BB). The class given is cell-based, human. To be noted: for activation at 10 µM: 72 h, read-out: % increase in 72 Hour Proliferation.
Assay [2] deals with Methylmalonic Acidemia (MMA) primary fibroblasts GM01673. Nature of the assay: Mitochondrial respiration, XFe96 Extracellular Flux Analyzer (OCR/ECAR), MMA fibroblasts GM01673. The following applies: Homo sapiens, Fibroblast. The class given is cell-based. Put shortly:
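Primary fibroblasts (20000 cells/well) were held 24 h in supplemented DMEM before Seahorse OCR/ECAR profiling. Compounds at 10 to 50 μM or 0.1% DMSO were injected after baseline, then oligomycin 1 μg/ml, FCCP, and rotenone/antimycin A 0.5 μM. Values were normalized to Hoechst nuclear counts, baselined to pre-compound, and expressed relative to vehicle.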

Assay [3] concerns tyrosine hydroxylase positive mesencephalic neurons injured by MPP+. Nature of the assay: Neuroprotective effect on damage induced by MPP+ on culture of mesencephalic neurons. The class given is cell-based. The following applies: Rattus norvegicus, Neuron, MPP+ 50 μM, 48h, read-out: % reversion of TH positive neurons (MPTP-mediated degradation of dopaminergic neurons). The source says:
A female Wistar rat (Janvier; France) of 15 days gestation was terminated by cervical dislocation, the fetuses were removed from the uterus and their brains were harvested and placed in ice-cold medium (Leibovitz's L15 medium, Gibco). Only ventral mesencephalic flexure was used for the cell preparations. The midbrain was dissociated by trypsinization. The reaction was stopped, and the suspension was triturated and centrifuged. The pellet of dissociated cells was resuspended in chemically defined medium consisted of Neurobasal (Gibco), containing B27 supplement (Gibco) and L-glutamine (Gibco), 10 ng/ml (BDNF; Pepro Tech, France) and 1 ng/ml (GDNF; Pepro Tech).
Viable primary rat embryo mesencephalic cells were counted and seeded on 96-multi-wells plate precoated with poly-L-lysine. Cells were maintained in a humidified incubator at 37° C. in 5% CO2-95% air atmosphere and medium changed on day 2. On day 6, the culture medium was removed and replaced by new media without neurotrophic factors containing the compounds of the present disclosure (50-10 μM) or vehicle (0.1% DMSO). After 1h exposure, injury of mesencephalon neuronal cultures was induced by MPP^+ (50 μM) for further 48h. A mixture of the growth factors GDNF (1 ng/ml) and BDNF (10 ng/ml) were used as reference compound. On day 8, the tyrosine hydroxylase positive neurons were evaluated. Cultures were fixed 30 min at 4° C. with paraformaldehyde in PBS (4%, Thermo Scientific, 28908). After, cells were permeabilized with 0.1% Triton X100 for 30 min, saturated with PBS containing 3% of BSA (bovine serum albumin) and incubated 2h with anti-tyrosine hydroxylase antibody (Sigma, 1:10000; clone TH-2) at 1/10000 in PBS containing 0.5% of BSA. Cells were washed three times with PBS containing 0.5% of BSA and incubated 1h with goat anti mouse antibody coupled with AF488 (Invitrogen A11001) diluted at 1/1000 in PBS containing 0.5% of BSA. Finally, nuclei were stained with DAPI at 1/1000 in PBS containing 0.5% of BSA. After rinsing with PBS, the plate was visualized and examined with Cell Insight HCS (Thermo Scientific) to determine the number of tyrosine hydroxylase positive cells per well.
The results for each well were expressed as a percentage by setting the density of tyrosine hydroxylase positive cells under control conditions to 100%. Then the result for each condition was reported as mean±SEM from 4 independent cultures.
A global analysis of the data was performed using a one-way analysis of variance (ANOVA), followed by Fisher's Protected Least Significant Difference when applicable. The level of significance was set to p<0.05.

[4] abbreviates: Homo sapiens, Fibroblast, 10 uM.
Setting [5] is: Homo sapiens, Fibroblast, 24 h, 10 uM, read-out: % decrease in Collagen III.
Setting [6] is: 10 uM, procedure of Example 833.
[7] abbreviates: assay condition D (1 mM glucose, 10% FBS), read-out: Increase in Maximal Respiratory Capacity AUC.
Setting [8] is: assay condition A (10 mM glucose, 2 mM L-glutamine, 1 mM pyruvate, 10% FBS), read-out: Increase in Maximal Respiratory Capacity AUC.

For `COC(=O)CCC(=O)SCCNC(=O)CCNC(=O)[C@H](OC(=O)CN)C(C)(C)CO` [Compound 1294, methyl 4-[(2-[3-[(2R)-2-[(2-aminoacetyl)oxy]-4-hydroxy-3,3-dimethylbutanamido]propanamido]ethyl)sulfanyl]-4-oxobutanoate], the inhibition at 1 µM in assay [1] (Homo sapiens, Fibroblast, 24 h, 1 uM, read-out: % decrease in Collagen III) is at least 10%. In assay [1] (setting [4]), the activation at 10 µM was at least 20%.
Take `CCCCCCC(=O)SCCNC(=O)CCNC(=O)[C@H](O)C(C)(C)CO` [Compound 372, (2R)—N-(2-[[2-(heptanoylsulfanyl)ethyl]carbamoyl]ethyl)-2,4-dihydroxy-3,3-dimethylbutanamide]: in assay [1] (10 uM), the “% increase in PAI-I” value is reported as at least 10%. Further, the inhibition at 10 µM in assay [1] (setting [5]) was at least 10%. Further, the activation at 10 µM in assay [2] (assay condition A (10 mM glucose, 2 mM L-glutamine, 1 mM pyruvate, 10% FBS), read-out: Increase in Spare Capacity AUC) was at least 10%.
In the case of `COC(=O)CC(C(C)=O)C(=O)SCCNC(=O)CCNC(=O)[C@H](O)C(C)(C)CO` (stereo partly drawn) [Compound 410], in assay [3], the inhibition at 10 µM was at least 60%. Further, the activation at 50 µM in assay [2] (assay condition A (10 mM glucose, 2 mM L-glutamine, 1 mM pyruvate, 10% FBS), 50 μM, read-out: Increase in Spare Capacity AUC) is at least 10%.
For `CC(C)(COC(=O)OCC[N+](C)(C)C)[C@@H](O)C(=O)NCCC(=O)NCCSC(=O)CCC(=O)O` [Compound 116, [2-([[(3R)-3-[[2-([2-[(3-carboxypropanoyl)sulfanyl]ethyl]carbamoyl)ethyl]carbamoyl]-3-hydroxy-2,2-dimethylpropoxy]carbonyl]oxy)ethyl]trimethylazanium], the “% decrease in Collagen I” value in assay [1] (setting [6]) was at least 10%. Besides, the inhibition at 10 µM in assay [3] is at least 30%.
Take `CC(C)(CO)[C@@H](O)C(=O)NCCC(=O)NCCSC(=O)CCCN` [Compound 370, (2R)—N-[2-([2-[(4-aminobutanoyl)sulfanyl]ethyl]carbamoyl)ethyl]-2,4-dihydroxy-3,3-dimethylbutanamide]: the activation at 10 µM in assay [2] (setting [7]) is at least 10%.
Turning to `CC(C)(CO)[C@@H](O)C(=O)NCCC(=O)NCCSC(=O)CC(=O)CCC(=O)O` [Compound 2, 6-[(2-[3-[(2R)-2,4-dihydroxy-3,3-dimethylbutanamido]propanamido]ethyl)sulfanyl]-4,6-dioxohexanoic acid], in assay [2] (assay condition D (1 mM glucose, 10% FBS), read-out: Increase in Spare Capacity AUC), the activation at 10 µM was at least 50%.
On to `CC(=O)OCC(C)(C)[C@@H](O)C(=O)NCCC(=O)NCCSC(=O)CC(=O)CCC(=O)O` [Compound 140, 6-[(2-[3-[(2R)-4-(acetyloxy)-2-hydroxy-3,3-dimethylbutanamido]propanamido]ethyl)sulfanyl]-4,6-dioxohexanoic acid], for which, in assay [3], the inhibition at 10 µM is at least 60%.
On the same count and under the same terms, in the case of `CC(=O)SCCNC(=O)CCNC(=O)[C@H](O)C(C)(C)COC(=O)CN` [Compound 560, (3R)-3-[(2-[[2-(acetylsulfanyl)ethyl]carbamoyl]ethyl)carbamoyl]-3-hydroxy-2,2-dimethylpropyl 2-aminoacetate] it was at least 30%.
As for `CC(C)(CO)[C@@H](O)C(=O)NCCC(=O)NCCSC(=O)CCC(=O)O` [Compound 1, (R)-4-((2-(3-(2,4-dihydroxy-3,3-dimethylbutanamido)propanamido)ethyl)thio)-4-oxobutanoic acid], in assay [3], the inhibition at 10 µM is at least 30%.
Regarding `CC(C)(CO)[C@@H](O)C(=O)NCCC(=O)NCCSC(CC(=O)OCC[N+](C)(C)C)C(=O)O` (stereo partly drawn) [Compound 51, [2-([3-carboxy-3-[(2-[3-[(2R)-2,4-dihydroxy-3,3-dimethylbutanamido]propanamido]ethyl)sulfanyl]propanoyl]oxy)ethyl]trimethylazanium], the activation at 10 µM in assay [2] (setting [7]) is at least 10%.
With `CC(=O)OCC(C)(C)[C@@H](OC(C)=O)C(=O)NCCC(=O)NCCSC(C)=O` [Compound 1264, (1R)-3-(acetyloxy)-1-[(2-[[2-(acetylsulfanyl)ethyl]carbamoyl]ethyl)carbamoyl]-2,2-dimethylpropyl acetate], in assay [1] (1 uM), the “% increase in PAI-I” value is at least 10%. Moreover, the “% increase in TIMP-2” value in assay [1] (10 uM) was at least 10%. In addition, the activation at 10 µM in assay [1] (setting [4]) was at least 10%.
Take `C[C@@H](O)CC(=O)SCCNC(=O)CCNC(=O)[C@H](O)C(C)(C)CO` [Compound 38, S-2-{3-[(R)-2,4-dihydroxy-3,3-dimethylbutyrylamino]propionylamino} ethyl (R)-3-hydroxybutanethioate]: the inhibition at 10 µM in assay [3] is at least 60%.
Regarding `CC(C)(CO)[C@@H](O)C(=O)NCCC(=O)NCCSC(=O)CCCO` [Compound 1304, (2R)-2,4-dihydroxy-N-[2-([2-[(4-hydroxybutanoyl)sulfanyl]ethyl]carbamoyl)ethyl]-3,3-dimethylbutanamide], the activation at 10 µM in assay [2] (setting [8]) is at least 10%.
For the molecule `COC(=O)CCC(=O)SCCNC(=O)CCNC(=O)[C@H](OC(=O)CNC(C)=O)C(C)(C)CO` [Compound 1298, methyl 4-[(2-[3-[(2R)-2-[(2-acetamidoacetyl)oxy]-4-hydroxy-3,3-dimethylbutanamido]propanamido]ethyl)sulfanyl]-4-oxobutanoate], in assay [1] (1 uM), the “% decrease in TIMP-1” value was at least 10% and the “% decrease in TIMP-2” value is at least 10%.
On to `CC(C)(CO)[C@@H](O)C(=O)NCCC(=O)NCCSC(=O)[C@@H](N)Cc1ccc(O)c(O)c1` [Compound 371, (2R)—N-[2-[(2-[[(2S)-2-amino-3-(3,4-dihydroxyphenyl)propanoyl]sulfanyl]ethyl)carbamoyl]ethyl]-2,4-dihydroxy-3,3-dimethylbutanamide], for which, in assay [1] (10 uM), the “% increase in PAI-I” value is given as at least 10%. In assay [1] (setting [6]), the “% decrease in Collagen I” value was at least 10%. For the same molecule, the figures for the inhibition at 10 µM in assay [1] (setting [5]) and in assay [3] were at least 10% and at least 60%, respectively. Besides, the activation at 10 µM in assay [2] (setting [7]) was at least 10%.
As to `CC(=O)SCCNC(=O)CCNC(=O)[C@H](O)C(C)(C)COC(=O)[C@@H](N)Cc1ccc(O)c(O)c1` [Compound 498, (3R)-3-[(2-[[2-(acetylsulfanyl)ethyl]carbamoyl]ethyl)carbamoyl]-3-hydroxy-2,2-dimethylpropyl (2S)-2-amino-3-(3,4-dihydroxyphenyl)propanoate], in assay [1] (1 uM), the “% decrease in TIMP-2” value is reported as at least 10%. In assay [1] (10 uM), the “% increase in M-CSF” value was at least 10% and the “% increase in SRB” value was at least 10%. Also, the “% decrease in Collagen I” value in assay [1] (setting [6]) was at least 10%. The inhibition at 10 µM in assay [1] (setting [5]) was at least 10%. Besides, in assay [3], the inhibition at 10 µM was at least 60%.
`CC(=O)SCCNC(=O)CCNC(=O)[C@H](O)C(C)(C)COC(=O)[C@H](C)N` [Compound 502, (3R)-3-[(2-[[2-(acetylsulfanyl)ethyl]carbamoyl]ethyl)carbamoyl]-3-hydroxy-2,2-dimethylpropyl (2S)-2-aminopropanoate]: the “% increase in SRB” value in assay [1] (1 uM) is reported as at least 10%. Moreover, in assay [2] (setting [8]), the activation at 10 µM was at least 10%.
Consider `C[C@@H](O)CC(=O)CC(=O)SCCNC(=O)CCNC(=O)[C@H](O)C(C)(C)CO` [Compound 42, (2R)-2,4-dihydroxy-N-[2-[(2-[[(5R)-5-hydroxy-3-oxohexanoyl]sulfanyl]ethyl)carbamoyl]ethyl]-3,3-dimethylbutanamide], for which the inhibition at 10 µM in assay [3] was at least 60%.
In the case of `COC(=O)CCC(=O)SCCNC(=O)CCNC(=O)[C@H](O)C(C)(C)COC(C)=O` [Compound 138], in assay [1] (1 uM, procedure of Example 833), the “% decrease in Collagen I” value is recorded as at least 10%.
As to `COC(=O)CC(SCCNC(=O)CCNC(=O)[C@H](O)C(C)(C)COC(C)=O)C(=O)OC` (stereo partly drawn) [Compound 149, 1,4-dimethyl 2-[(2-[3-[(2R)-4-(acetyloxy)-2-hydroxy-3,3-dimethylbutanamido]propanamido]ethyl)sulfanyl]butanedioate], in assay [1] (1 uM, procedure of Example 833), the “% increase in Collagen I” value is at least 10%. Also, in assay [2] (setting [7]), the activation at 10 µM is at least 10%.
